Measurements: patent publication US20080159962A1, “Use of Inhibitors of the Renin-Angiotensin System for the Treatment of Lung Injuries” (priority 2005, published 2008)
Where two headings read alike, the source gives them in different places.

Legend:
Type in all cases: in vivo
[1] = molecular target: T1, BK2 (Mus musculus, UniProt P32299); assay: Bradykinin receptor inhibitor study (BK2) in acid aspiration-induced ALI of ace2 KO mice; conditions: acid-treated ace2 KO mice, 1.5 mg/kg i.p. 30 min before surgical procedures, 3 hrs (FIG. 17)
T1 construct: from tissue; host or cells: live ace2 KO mice, lung elastance read-out
T1 sequence (P32299 1-392): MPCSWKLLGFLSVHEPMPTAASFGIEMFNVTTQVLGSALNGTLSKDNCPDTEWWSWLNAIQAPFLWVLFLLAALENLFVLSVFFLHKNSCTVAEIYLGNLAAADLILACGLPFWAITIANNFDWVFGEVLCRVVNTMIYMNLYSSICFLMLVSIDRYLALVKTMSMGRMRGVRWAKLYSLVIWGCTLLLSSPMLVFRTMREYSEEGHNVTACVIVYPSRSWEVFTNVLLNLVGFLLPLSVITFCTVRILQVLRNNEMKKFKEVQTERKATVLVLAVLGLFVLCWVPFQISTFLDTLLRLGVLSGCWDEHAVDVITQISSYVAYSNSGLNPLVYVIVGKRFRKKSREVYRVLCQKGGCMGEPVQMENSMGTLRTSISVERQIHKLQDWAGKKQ
Procedure: (§1) Murine acid aspiration-induced lung injury model: For acid aspiration-induced ALI, 2.5-3 month old mice were anaesthetized with ketamin (75 mg/kg) and xylazine (20 mg/kg) i.p., tracheostomized and ventilated with a volume control constant flow ventilator (Voltek Enterprises). Volume recruitment manoeuvre (VRM) (25 cmH2O, 3 sec) was performed to standardize volume history and measurements were made as baseline. After intratracheal instillation of HCl (pH=1.5; 2 ml/kg), followed by a VRM (35 cmH2O, 3 seconds), animals were ventilated for 3 hrs (FIO2 1.0). Total PEEP (PEEPt) and plateau pressure (Pplat) were measured at the end of expiratory and inspiratory occlusion, respectively, and elastance was calculated as Pplat minus PEEPt)/VT every 30 minutes during the ventilation periods.
Bradykinin receptors inhibitor studies: Ace2 KO mice (2.5-3 months old) received the BK1 inhibitor (des Arg HOE, Sigma, 1.5 mg/kg), the BK2 inhibitor (HOE 140, Sigma, 1.5 mg/kg), or control vehicle i.p. 30 min before surgical procedures. After HCl instillation, animals were randomized into groups: (1) ace2 KO, acid, vehicle control; (2) ace2 KO, acid, BK1 inhibitor; (3) ace2 KO, acid, BK2 inhibitor. Animals were then ventilated for 3 hrs and analyzed as above.

[2] = molecular target: T2, AT1R (Mus musculus, UniProt P29754)
T2 sequence (P29754 whole entry): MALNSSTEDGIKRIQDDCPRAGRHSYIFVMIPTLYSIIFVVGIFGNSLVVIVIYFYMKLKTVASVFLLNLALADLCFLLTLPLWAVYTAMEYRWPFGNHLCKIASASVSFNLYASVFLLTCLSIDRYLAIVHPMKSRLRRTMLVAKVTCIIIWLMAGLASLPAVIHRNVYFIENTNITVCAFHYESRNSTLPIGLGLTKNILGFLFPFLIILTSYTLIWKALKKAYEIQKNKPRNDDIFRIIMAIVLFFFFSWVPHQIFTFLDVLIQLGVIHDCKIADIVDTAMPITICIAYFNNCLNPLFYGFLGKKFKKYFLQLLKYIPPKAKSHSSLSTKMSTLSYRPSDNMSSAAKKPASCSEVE

[3] = molecular target: T2, AT1R; assay: AT1R inhibitor study in acid-induced ALI of ace2 KO mice; conditions: acid-treated ace2 KO mice
Procedure: as §1, with “Experimental murine ALI models:” for “Murine acid aspiration-induced lung injury model:”, “Enterprises, Canada).” for “Enterprises).”, “Saline-treated groups served as controls. […] All animals were monitored throughout an 18-hrs recovery period. […] In all experimental ALI models, total” for “Total”, “periods. […]” for “periods.”
Assessment of blood oxygenation, pulmonary oedema, and pulmonary vascular permeability: At the end of the experiments, blood samples were obtained from the left heart ventricle and PaO2 was measured (Ciba-Corning Model 248, Bayer, Leverkusen, Germany) to assess arterial blood oxygenation as an indicator for respiratory failure. To assess pulmonary oedemas, the lung wet/dry weight ratios were calculated. […]

[4] = molecular target: T3, AT2R (Mus musculus, UniProt P35374); assay: AT2R inhibitor study in acid-induced ALI of ace2 KO mice; conditions: acid-treated ace2 KO mice, 15 mg/kg i.p., 3 hrs (FIG. 10b)
T3 construct: from tissue; host or cells: live ace2 KO mice, lung elastance read-out
T3 sequence (P35374 1-363): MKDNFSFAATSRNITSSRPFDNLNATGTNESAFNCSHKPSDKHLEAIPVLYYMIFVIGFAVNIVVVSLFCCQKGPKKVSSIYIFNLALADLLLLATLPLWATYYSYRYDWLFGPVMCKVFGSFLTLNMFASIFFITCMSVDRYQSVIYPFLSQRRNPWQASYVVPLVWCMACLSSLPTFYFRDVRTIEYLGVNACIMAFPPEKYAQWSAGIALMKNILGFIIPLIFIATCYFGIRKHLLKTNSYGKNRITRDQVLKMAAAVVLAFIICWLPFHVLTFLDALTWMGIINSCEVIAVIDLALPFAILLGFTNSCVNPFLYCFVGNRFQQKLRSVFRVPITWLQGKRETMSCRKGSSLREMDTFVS
Procedure: as §1, with “Experimental murine ALI models:” for “Murine acid aspiration-induced lung injury model:”, “Enterprises, Canada).” for “Enterprises).”, “Saline-treated groups served as controls. […] All animals were monitored throughout an 18-hrs recovery period. […] In all experimental ALI models, total” for “Total”, “periods. […]” for “periods.”
AT1R/AT2R inhibitor studies: Mice (2.5-3 months old) received the AT1R inhibitor Losartan (15 mg/kg), the AT2R inhibitor PD123.319 (15 mg/kg), or control vehicle i.p. 30 min before surgical procedures. […] Animals were then ventilated for 3 hrs and analyzed as above.

Structure (SMILES): NC(N)=NCCC[C@@H](N)C(=O)N[C@@H](CCCN=C(N)N)C(=O)N1CCC[C@H]1C(=O)N1C[C@H](O)C[C@H]1C(=O)NCC(=O)N[C@@H](Cc1cccs1)C(=O)N[C@@H](CO)C(=O)N1Cc2ccccc2C[C@@H]1C(=O)N1[C@H](C(=O)N[C@@H](CCCN=C(N)N)C(=O)O)C[C@@H]2CCCC[C@@H]21 [BK2 inhibitor, DArg[Hyp^3,Thi^5,DTic^7,Oic^8]-bradykinin]
- lung failure assessed by pulmonary elastance [1]: improved the lung failure

Structure (SMILES): CCCCc1nc(Cl)c(CO)n1Cc1ccc(-c2ccccc2-c2nn[nH]n2)cc1 [Losartan]
- acute severe lung injury (lung elastance) ([2]; acid plus Spike-Fc challenged WT mice, 15 mg/kg (FIG. 5c)): attenuates SARS Spike-mediated severe acute lung injury
- acute severe lung injury (lung elastance) ([2]; mouse, in vivo): attenuated acute severe lung injury
- pulmonary oedema (wet to dry weight ratio) ([2]; mouse, in vivo): attenuated pulmonary oedema
- severity of ALI (lung elastance) ([3]; 15 mg/kg i.p. 30 min before surgical procedures, 3 hrs (FIG. 10b)): attenuated the severity of ALI
- acid-induced pulmonary oedema (wet to dry weight ratio) ([3]; 15 mg/kg, 3 hrs (FIG. 16b)): attenuated acid-induced pulmonary oedema

Structure (SMILES): Cc1cc(Cn2cnc3c2C[C@@H](C(=O)O)N(C(=O)C(c2ccccc2)c2ccccc2)C3)ccc1N(C)C [PD123.319]
- severe acute lung injury phenotypes (lung elastance) [4]: had no apparent effect
